According to patent publication US11891601B2, “Method to enhance the transcription regulation of SUPT4H on genes containing repetitive nucleotide sequences” (National Yang-Ming University, priority 2018, dated 2024):

What was measured:
mutant HTT = test: Mutant HTT protein level in HD-Drosophila by Western blotting; type: in vivo, Drosophila melanogaster; settings: 10 μM 6CR plus 100 μM Tropolone in media, fly heads
Protocol: For Drosophila samples, 15 males and 15 females HD flies were collected after each compound treatment. Their heads were isolated and homogenized with 1× sample buffer (50 mM Tris-HCl pH 7.5, 150 mM NaCl, 1% NP-40, 0.1% sodium dodecyl sulfate (SDS), 1% sodium deoxycholate, and blue dye) for protein lysate collection. Equivalent amounts of protein lysates were separated on 12% SDS-polyacrylamide gel, and then transferred to NC membranes (GE Healthcare Life Science). Detection of HTT and α-tubulin protein was performed as described above.
In each compound treatment experiment, 15 Gmr-ga14-UAS-HTT97Q/cyo male flies were crossed with 15 Gmr-ga14-UAS-HTT-97Q/cyo females in a vial containing 10 mL of media supplemented with the testing compound at a final concentration of 10 μM 6CR (Sigma) or/and 100 μM Tropolone (Sigma). […] In each treatment group, flies were analyzed and normalized with control flies. […]
Please refer to FIG. 8. […] After parent fly removal, the 4-day-old progenies carrying one Gmr-ga14-UAS-HTT97Q allele were collected and analyzed for eye morphology. […] 4-day-old progenies as described above were collected and analyzed the levels of mutant HTT by Western blotting. α-tubulin was included and served as a loading control. […]

human RNases H = settings: Budihas et al, 2005; read-out: IC50, inhibition of enzymatic activity of human RNases H; cited from earlier work

O=c1cccccc1O [Tropolone]
level of mutant HTT, 6CR with co-treatment of Tropolone (mutant HTT): decreased accordingly | IC50 (human RNases H): 5.7 µM
